Consider one compound from BindingDB's records for patent US9139585 (Merck Sharp & Dohme, 2015).

This experiment has as its target T1, ATP-sensitive inward rectifier potassium channel 1 (Homo sapiens, UniProt P48048).
T1 sequence (P48048 whole entry): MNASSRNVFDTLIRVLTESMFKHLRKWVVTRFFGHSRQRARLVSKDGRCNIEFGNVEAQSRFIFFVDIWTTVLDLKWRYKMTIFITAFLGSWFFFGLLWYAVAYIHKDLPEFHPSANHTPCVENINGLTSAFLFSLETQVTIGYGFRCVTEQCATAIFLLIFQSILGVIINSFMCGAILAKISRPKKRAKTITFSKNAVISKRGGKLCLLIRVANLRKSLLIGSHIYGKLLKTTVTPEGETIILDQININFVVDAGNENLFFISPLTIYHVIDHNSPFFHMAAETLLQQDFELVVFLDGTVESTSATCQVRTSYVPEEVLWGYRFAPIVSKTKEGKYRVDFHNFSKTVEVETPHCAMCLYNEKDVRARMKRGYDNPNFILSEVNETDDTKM
Put plainly: Electrophysiology Assay. The note with it: pH 7.4; 37 °C. On the procedure:
Chinese hamster ovary cells stably expressing Kir1.1 channels were maintained in T-75 flasks in cell culture media in a humidified 10% CO2 incubator at 37 °C. Prior to an experiment, Kir1.1 expression was induced by overnight incubation with 1 mM sodium butyrate. […] After centrifugation, the cell pellet was resuspended in approximately 4.0 ml of bath solution and placed in the IonWorks instrument. The intracellular solution consisted of (in mM): 80 K gluconate, 40 KCl, 20 KF, 3.2 MgCl2, 3 EGTA, 5 Hepes, pH 7.

In turn, `Cc1c([C@@H](O)CN2CCN(C[C@H](O)c3ccc4c(c3)CCS4(=O)=O)CC2)ccc2c1COC2=O` [US9139585, 43B] gave a half-maximal inhibitory concentration (IC50) of 95 nM.
